Assay results as given in patent US20240299360A1, “ADAMTS INHIBITORS, PREPARATION METHODS AND MEDICINAL USES THEREOF” (Jiangsu Hengrui Pharmaceuticals Co., Ltd., priority 2020, published 2024).

Columns and labels:
[1] = target: T1, ADAMTS-5 recombinant protein (Homo sapiens (Human), UniProt Q9UNA0); experiment: In vitro ELISA of ADAMTS-5 activity (Aggrecan-IGD enzymatic assay); assay type: biochemical; conditions: aggrecan-IGD substrate, ARGSVIL-peptide ELISA, 37° C. 45 minutes
Protocol: In this assay, the enzymatic activity of recombinant ADAMTS-5 protein (catalog #2198-AD, R&D Systems) was assayed with a protein substrate, the aggrecan IGD protein. The aggrecan IGD protein is a polypeptide connecting human aggrecan globular domains 1 and 2 (T331-G458) expressed in E. Coli with a C-terminal His-tag (catalog #30411000, BIOTEZ). The enzymatic product ARGSVIL-peptide was detected using an ELISA kit from BioTEZ (catalog #30510111).
An assay buffer containing 50 mM HEPES pH 7.5, 100 mM NaCl, 5 mM CaCl2), 0.1% CHAPS and 5% Glycerol was prepared. Recombinant ADAMTS-5 protein was diluted to 0.3 nM in the assay buffer. Ten μl of […] and 10 μl of compound solution was transferred to each well of a 96-well plate and incubated at room temperature for 15 minutes. Substrate aggrecan-IGD was diluted to 100 nM with the assay buffer and 20 μl was added to each well. The plate was incubated at 37° C. for 45 minutes. After incubation, the newly generated epitope ARGSVIL-peptides were measured using the Aggrecanase Activity ELISA Assay Kit following the manufacturer's instructions. Then, 100 μl of stop solution was added and the absorbance of each well was read at 450 nm, using […] as reference on a TECAN plate reader.
A standard curve of the ELISA assay was generated in GraphPad Prism using Sigmoidal 4PL function and the corresponding peptide concentrations were calculated based on the standard curve. The IC50 values were calculated using function “log (inhibitor) vs. response—Variable slope (four parameters)”. (See Table 2).

[2] = target: T1, ADAMTS-5 recombinant protein; experiment: In vitro fluorescence (FRET-peptide) enzymatic assay of ADAMTS-5 activity; assay type: biochemical; conditions: FRET peptide substrate 8 μM, 10 nM enzyme, 37° C. 3 hours
Protocol: (§1) A FRET (fluorescence resonance energy transfer) peptide was cleaved by recombinant ADAMTS-4 or ADAMTS-5 proteins into two separate fragments resulting in an increase of fluorescence signal which was quantified. The peptide was 5-FAM-[…](5-TAMRA)K-NH2, customized from ANASPEC. ADAMTS-4 recombinant protein (catalog #4307-AD) and ADAMTS-5 recombinant protein (catalog #2198-AD) were purchased from R&D Systems.
(§2) An assay buffer containing 50 mM HEPES pH 7.5, 100 mM NaCl, 5 mM CaCl2, 0.1% CHAPS and 5% Glycerol was prepared. A volume of 2.5 μl of compound in the assay buffer was dispensed to a 384-well plate, and 2.5 μl of ADAMTS-4 or ADAMTS-5 protein (final concentration in the reaction was 10 nM) was added. The compounds and proteins were pre-incubated at room temperature for 15 minutes. Then, 5 μl of substrate was added to each well. The final substrate concentrations for ADAMTS-4 and ADAMTS-5 were 15 μM and 8 μM, respectively. The fluorescence signal in each well was determined, after incubation at 37° C. for 3 hours, on a TECAN plate reader (Excitation, 490 nm; Emission, 520 nm).
(§3) The data was inputted into GraphPad Prism, and the IC50 values were calculated using function “log (inhibitor) vs. response—Variable slope (four parameters)”. (See Table 1)

[3] = system: mouse femoral head cartilage; experiment: Mouse explant assay (IL-1α induced GAG release); assay type: cell-based; conditions: inhibition of GAG release, IL-1α 1 ng/ml, 72 hours; for inhibition at 2 µM: compound 2 μM; for inhibition at 20 µM: compound 20 μM
Protocol: In this assay, fresh mouse femoral head cartilage was treated with IL-1α protein (Sigma-Aldrich, catalog #12778) in culture media, which induces the cartilage catabolism. Then, the GAGs attached to the cleaved aggrecan fragments (released in the media) and the GAGs attached to the intact aggrecan were measured by dimethylmethylene blue dye in the Glycosaminoglycans Assay Kit (Chondrex, catalog #6022).
Femoral head cartilage samples were isolated from mice (25 days old, male, C57BL/6, from Charles River Lab) and put into 2.0 ml tubes filled-up with media (DMEM, 10% FBS, 4 mM Glutamine, penicillin-streptomycin, 20 mM HEPES). Two hundred μl of media without FBS was added to each well of a 48-well plate, and one piece of cartilage was transferred to a well in the plate. Then the media was aspirated, and compounds and IL-1α protein were added to the plate in a total volume of 400 μl of fresh media without FBS. The final concentration of IL-1α was 1 ng/ml. The plate was incubated at 37° C. for 72 hours in a humidified incubator with 5% CO2 supply.
The supernatant was transferred to a 1.5 ml tube and kept at −20° C. Each cartilage sample was transferred to another 1.5 ml tube containing 400 μl of freshly made papain solution. The papain solution contained 125 μg/ml papain (Sigma-Aldrich, catalog #P3125), 0.1 M sodium acetate (Sigma-Aldrich, catalog #S7899), pH 5.5 and 5 mM EDTA and 5 mM L-cysteine-HCl (Sigma-Aldrich, catalog #C7880). The cartilage samples were kept rocking in a 60° C. water bath for 24 hours. The lysates were vortexed for 10 seconds and spinned at 10,000 rpm for 2 minutes.
Both the supernatant and the lysate samples were diluted with PBS and mixed with 100 μl of dye from the Glycosaminoglycans Assay Kit. The optical density from each well was determined with a TECAN plate reader set to a wavelength of 525 nm.
The concentrations of GAGs in the supernatant and lysates were determined based on the standard curve with a dose range of chondroitin sulfate provided in the kit. The percentage of GAG release was calculated as the following
The test compound effect was expressed as the percent of inhibition using the following formula: […]

[4] = target: ADAMTS-4 recombinant protein (Homo sapiens (Human), UniProt O75173); experiment: In vitro fluorescence (FRET-peptide) enzymatic assay of ADAMTS-4 activity; assay type: biochemical; conditions: FRET peptide substrate 15 μM, 10 nM enzyme, 37° C. 3 hours
ADAMTS-4 recombinant protein, sequence (O75173 213-685): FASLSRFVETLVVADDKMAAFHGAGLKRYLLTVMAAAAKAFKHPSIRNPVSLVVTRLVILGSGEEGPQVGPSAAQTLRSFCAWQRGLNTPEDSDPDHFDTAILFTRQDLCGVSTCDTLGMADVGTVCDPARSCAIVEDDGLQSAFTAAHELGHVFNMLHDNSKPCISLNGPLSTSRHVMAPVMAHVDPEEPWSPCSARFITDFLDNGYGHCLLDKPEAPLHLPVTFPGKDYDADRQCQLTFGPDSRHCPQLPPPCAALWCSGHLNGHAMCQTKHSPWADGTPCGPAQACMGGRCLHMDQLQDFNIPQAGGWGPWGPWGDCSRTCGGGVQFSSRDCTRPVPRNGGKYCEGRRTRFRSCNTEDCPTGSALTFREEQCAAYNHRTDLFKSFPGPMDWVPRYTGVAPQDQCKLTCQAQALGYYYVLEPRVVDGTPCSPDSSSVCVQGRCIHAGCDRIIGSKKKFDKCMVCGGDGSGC
Protocol: as §1, §2, §3

T1 sequence (Q9UNA0 262-622): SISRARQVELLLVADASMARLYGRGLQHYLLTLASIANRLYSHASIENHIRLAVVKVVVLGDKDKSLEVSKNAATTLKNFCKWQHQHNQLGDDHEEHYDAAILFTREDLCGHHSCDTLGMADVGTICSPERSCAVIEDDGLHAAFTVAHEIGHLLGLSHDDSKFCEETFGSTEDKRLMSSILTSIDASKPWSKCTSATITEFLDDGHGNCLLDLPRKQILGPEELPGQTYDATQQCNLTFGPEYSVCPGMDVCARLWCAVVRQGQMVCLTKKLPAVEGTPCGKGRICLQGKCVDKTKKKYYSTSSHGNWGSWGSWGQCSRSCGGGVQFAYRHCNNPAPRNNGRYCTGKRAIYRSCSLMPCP

Compound | IC50 [1] | IC50 [2] | inhibition at 2 µM [3] | inhibition at 20 µM [3] | IC50 [4]
C[C@@H]1c2cc(Cl)c(Cl)cc2CN1C(=O)CC[C@@]1(C2CC2)NC(=O)NC1=O [Example 66-2, (S)-5-cyclopropyl-5-(3-((R)-5,6-dichloro-1-methylisoindolin-2-yl)-3-oxopropyl)imidazolidine-2,4-dione] | 19 nM | 10 nM | 23% | 87% | 12 nM
O=C1NC(=O)[C@](CCC(=O)N2Cc3cc(Br)c(C(F)(F)F)cc3C2)(C2CC2)N1 [Example 59, (S)-5-(3-(5-bromo-6-(trifluoromethyl)isoindolin-2-yl)-3-oxopropyl)-5-cyclopropylimidazolidine-2,4-dione] | 46 nM | 46 nM | 16% | 66% | 82 nM
O=C1NC(=O)[C@](CCC(=O)N2CCc3ccc(F)cc3CC2)(C2CC2)N1 [Example 44, (S)-5-cyclopropyl-5-(3-(7-fluoro-1,2,4,5-tetrahydro-3H-benzo[d]azepin-3-yl)-3-oxopropyl)imidazolidine-2,4-dione] | 51 nM | 37 nM | 13% | 70% | 15 nM
O=C1NC(=O)[C@](CCC(=O)N2Cc3cc(Cl)c(Cl)cc3C2)(C2CC2)N1 [Example 20, (S)-5-cyclopropyl-5-(3-(5,6-dichloroisoindolin-2-yl)-3-oxopropyl)imidazolidine-2,4-dione] | – | 37 nM | 67% | 100% | 22 nM
[2H]C1([2H])c2cc(Cl)c(Cl)cc2C([2H])([2H])N1C(=O)CC[C@@]1(C2CC2)NC(=O)NC1=O [Example 80, (S)-5-cyclopropyl-5-(3-(5,6-dichloroisoindolin-2-yl-1,1,3,3-d4)-3-oxopropyl)imidazolidine-2,4-dione] | – | 32 nM | 30% | 73% | 28 nM
O=C1NC(=O)[C@](CCC(=O)N2CCc3ccccc3CC2)(C2CC2)N1 [Example 9, (S)-5-cyclopropyl-5-(3-(4,5-dihydro-1H-benzo[d]azepin-3 (2H)-yl)-3-oxopropyl)imidazolidine-2,4-dione] | 56 nM | 37 nM | 22% | 55% | 42 nM
CC1CN(C(=O)CC[C@@]2(C3CC3)NC(=O)NC2=O)CCc2ccc(Cl)cc21 (stereo partly drawn) [Example 8, (5S)-5-(3-(8-chloro-1-methyl-4,5-dihydro-1H-benzo[d]azepin-3 (2H)-yl)-3-oxopropyl)-5-cyclopropylimidazolidine-2,4-dione] | 130 nM | 53 nM | 22% | 63% | 66 nM
O=C1NC(=O)[C@](CCC(=O)N2Cc3ccc(C(F)(F)F)cc3C2)(C2CC2)N1 [Example 1, (S)-5-cyclopropyl-5-(3-oxo-3-(5-(trifluoromethyl)isoindolin-2-yl)propyl)imidazolidine-2,4-dione] | 140 nM | 88 nM | 27% | 61% | 60 nM
O=C1NC(=O)[C@](CCC(=O)N2Cc3ccc(C(F)F)cc3C2)(C2CC2)N1 [Example 52, (S)-5-cyclopropyl-5-(3-(5-(difluoromethyl)isoindolin-2-yl)-3-oxopropyl)imidazolidine-2,4-dione] | 48 nM | 66 nM | 10% | 48% | 30 nM
O=C1NC(=O)[C@](CCC(=O)N2CCc3ccc(C(F)(F)F)cc3CC2)(C2CC2)N1 [Example 45, (S)-5-cyclopropyl-5-(3-oxo-3-(7-(trifluoromethyl)-1,2,4,5-tetrahydro-3H-benzo[d]azepin-3-yl)propyl)imidazolidine-2,4-dione] | 25 nM | 12 nM | 45% | 96% | 19 nM
COc1ccc2c(c1)CCN(C(=O)CC[C@@]1(C3CC3)NC(=O)NC1=O)CC2 [Example 5, (S)-5-cyclopropyl-5-(3-(7-methoxy-4,5-dihydro-1H-benzo [d]azepin-3 (2H)-yl)-3-oxopropyl)imidazolidine-2,4-dione] | 240 nM | 73 nM | 19% | 51% | 46 nM
O=C1NC(=O)C(CC(CO)C(=O)N2Cc3cc(Cl)c(Cl)cc3C2)(C2CC2)N1 (stereo not shown) [Example 42, 5-cyclopropyl-5-(3-(5,6-dichloroisoindolin-2-yl)-2-(hydroxymethyl)-3-oxopropyl)imidazolidine-2,4-dione] | 17 nM | 14 nM | 51% | 92% | 11 nM
O=C1NC(=O)[C@](CCC(=O)N2Cc3cc(Cl)c(C(F)(F)F)cc3C2)(C2CC2)N1 [Example 40, (S)-5-(3-(5-chloro-6-(trifluoromethyl)isoindolin-2-yl)-3-oxopropyl)-5-cyclopropylimidazolidine-2,4-dione] | 92 nM | 25 nM | 2% | 52% | 42 nM
C[C@H]1CN(C(=O)CC[C@@]2(C3CC3)NC(=O)NC2=O)CCc2ccc(Cl)cc21 [Example 21, (S)-5-(3-((R)-8-chloro-1-methyl-1,2,4,5-tetrahydro-3H-benzo[d]azepin-3-yl)-3-oxopropyl)-5-cyclopropylimidazolidine-2,4-dione] | – | 16 nM | 39% | 100% | 20 nM
CC1c2cc(Cl)c(Cl)cc2CN1C(=O)CC[C@@]1(C2CC2)NC(=O)NC1=O (stereo partly drawn) [Example 66, (5S)-5-cyclopropyl-5-(3-(5,6-dichloro-1-methylisoindolin-2-yl)-3-oxopropyl)imidazolidine-2,4-dione] | 83 nM | 52 nM | – | – | 43 nM
